Laboratory results: ChEMBL document CHEMBL1123242, “Derivatives of 1-(1,3-benzodioxol-5-yl)-2-butanamine: representatives of a novel therapeutic class” (1986)

Columns and labels:
Assay type in all cases: functional
Rattus norvegicus [1] = test: Compound was tested for hallucinogenic activity in rats at the dose 0.37(mg/kg); Number of rats selecting the LSD lever/ number of rats responding (1/8)
Rattus norvegicus [2] = test: Compound was tested for hallucinogenic activity in rats at 2.19 dose(mg/kg); Number of rats selecting the LSD lever/ number of rats responding (2/8)
Rattus norvegicus [3] = test: Compound was tested for hallucinogenic activity in rats at 1.83 dose (mg/kg); Number of rats selecting the LSD lever/ number of rats responding (1/8)
Rattus norvegicus [4] = test: Compound was tested for hallucinogenic activity in rats at 0.73(mg/kg); Number of rats selecting the LSD lever/ number of rats responding (1/8)
Rattus norvegicus [5] = test: Compound was tested for hallucinogenic activity in rats at dose 1.46 (mg/kg); Number of rats selecting the LSD lever/ number of rats responding (1/8)
Rattus norvegicus [6] = test: Compound was tested for hallucinogenic activity in rats at 2.92 dose(mg/kg); Number of rats selecting the LSD lever/ number of rats responding (3/8)
Rattus norvegicus [7] = test: Compound was tested for hallucinogenic activity in rats at 3.65 dose(mg/kg); 0/1, highest dose tested
Rattus norvegicus [8] = test: Compound was tested for hallucinogenic activity in rats at 2.56 dose(mg/kg); Number of rats selecting the LSD lever/ number of rats responding (2/8)
Rattus norvegicus [9] = test: Compound was tested for hallucinogenic activity in rats at the dose 0.17 mg/kg); Number of rats selecting the LSD lever/ number of rats responding (3/8)
Rattus norvegicus [10] = test: Compound was tested for hallucinogenic activity in rats at 1.73 dose(mg/kg); 0/0, highest dose tested
Rattus norvegicus [11] = test: Compound was tested for hallucinogenic activity in rats at the dose 0.32(mg/kg); Number of rats selecting the LSD lever/ number of rats responding (2/8)
Rattus norvegicus [12] = test: Compound was tested for hallucinogenic activity in rats at dose 1.29(mg/kg); Number of rats selecting the LSD lever/ number of rats responding (3/8)
Rattus norvegicus [13] = test: Compound was tested for hallucinogenic activity in rats at the dose 0.16(mg/kg); Number of rats selecting the LSD lever/ number of rats responding (1/8)
Rattus norvegicus [14] = test: Compound was tested for hallucinogenic activity in rats at 0.63 dose(mg/kg); Number of rats selecting the LSD lever/ number of rats responding (2/8)
Rattus norvegicus [15] = test: Compound was tested for hallucinogenic activity in rats at 1.62 dose(mg/kg); Number of rats selecting the LSD lever/ number of rats responding (2/6)
Rattus norvegicus [16] = test: Compound was tested for hallucinogenic activity in rats at dose 1.38 (mg/kg); Number of rats selecting the LSD lever/ number of rats responding (3/8)
Rattus norvegicus [17] = test: Compound was tested for hallucinogenic activity in rats at 0.69 dose(mg/kg); Number of rats selecting the LSD lever/ number of rats responding (1/8)
Rattus norvegicus [18] = test: Compound was tested for hallucinogenic activity in rats at 2.07 dose(mg/kg); Number of rats selecting the LSD lever/ number of rats responding (3/8)
Rattus norvegicus [19] = test: Compound was tested for hallucinogenic activity in rats at 2.41 dose(mg/kg); Number of rats selecting the LSD lever/ number of rats responding (8/8)
Rattus norvegicus [20] = test: Compound was tested for hallucinogenic activity in rats at 1.72 dose (mg/kg); Number of rats selecting the LSD lever/ number of rats responding (2/8)
Rattus norvegicus [21] = test: Compound was tested for hallucinogenic activity in rats at the dose 0.17(mg/kg); Number of rats selecting the LSD lever/ number of rats responding (1/8)
Rattus norvegicus [22] = test: Compound was tested for hallucinogenic activity in rats at the dose 1.38 (mg/kg)
Rattus norvegicus [23] = test: Compound was tested for hallucinogenic activity in rats at the dose 0.34(mg/kg); Number of rats selecting the LSD lever/ number of rats responding (1/8)
Rattus norvegicus [24] = test: Compound was tested for hallucinogenic activity in rats at the dose 0.17 (mg/kg)
Rattus norvegicus [25] = test: Compound was tested for hallucinogenic activity in rats at the dose 0.16 (mg/kg)
Rattus norvegicus [26] = test: Compound was tested for hallucinogenic activity in rats at 0.32 dose(mg/kg); Number of rats selecting the LSDlever/ number of rats responding (2/8)
Rattus norvegicus [27] = test: Compound was tested for hallucinogenic activity in rats at 0.16 dose(mg/kg); Number of rats selecting the LSDlever/ number of rats responding (1/8)
Rattus norvegicus [28] = test: Compound was tested for hallucinogenic activity in rats at the 1.29 dose(mg/kg); Number of rats selecting the LSDlever/ number of rats responding (7/8)
Rattus norvegicus [29] = test: Compound was tested for hallucinogenic activity in rats at the 0.63 dose(mg/kg); Number of rats selecting the LSDlever/ number of rats responding (2/8)
Rattus norvegicus [30] = test: Compound was tested for hallucinogenic activity in rats at dose 1.38(mg/kg); Number of rats selecting the LSD lever/ number of rats responding (4/8)
Rattus norvegicus [31] = test: Compound was tested for hallucinogenic activity in rats at the dose 0.17(mg/kg); Number of rats selecting the LSD lever/ number of rats responding […])
Rattus norvegicus [32] = test: Compound was tested for hallucinogenic activity in rats at 0.69 dose(mg/kg); Number of rats selecting the LSD lever/ number of rats responding (4/8)
Rattus norvegicus [33] = test: Compound was tested for hallucinogenic activity in rats at 1.82 dose (mg/kg); 0/0, highest dose tested
Rattus norvegicus [34] = test: Compound was tested for hallucinogenic activity in rats at the dose 0.34(mg/kg); Number of rats selecting the LSD lever/ number of rats responding (2/8)
Rattus norvegicus [35] = test: Compound was tested for hallucinogenic activity in rats at dose 1.72 (mg/kg); Number of rats selecting the LSD lever/ number of rats responding (4/8)
Rattus norvegicus [36] = test: Compound was tested for hallucinogenic activity in rats at 0.69 dose(mg/kg); Number of rats selecting the LSD lever/ number of rats responding (2/9)
Rattus norvegicus [37] = test: Compound was tested for hallucinogenic activity in rats at the dose 0.34(mg/kg); Number of rats selecting the LSD lever/ number of rats responding (3/8
Rattus norvegicus [38] = test: Compound was tested for hallucinogenic activity in rats at 2.41 dose (mg/kg); Number of rats selecting the LSD lever/ number of rats responding (3/8)
Rattus norvegicus [39] = test: Compound was tested for hallucinogenic activity in rats at dose 1.38(mg/kg); Number of rats selecting the LSD lever/ number of rats responding (2/8)
Rattus norvegicus [40] = test: Compound was tested for hallucinogenic activity in rats at 2.76 dose (mg/kg); Number of rats selecting the LSD lever/ number of rats responding (3/9)
Rattus norvegicus [41] = test: Compound was tested for hallucinogenic activity in rats at 1.72 dose(mg/kg); Number of rats selecting the LSD lever/ number of rats responding (4/8)
Rattus norvegicus [42] = test: Compound was tested for hallucinogenic activity in rats at 4.14 dose (mg/kg); 2/4, highest dose tested
Rattus norvegicus [43] = test: Compound was tested for hallucinogenic activity in rats at 2.07dose (mg/kg); Number of rats selecting the LSD lever/ number of rats responding (3/8)
Rattus norvegicus [44] = test: Compound was tested for hallucinogenic activity in rats at 3.44 dose (mg/kg); Number of rats selecting the LSD lever/ number of rats responding (4/8)
Rattus norvegicus [45] = test: Compound was tested for hallucinogenic activity in rats at 15 dose(mg/kg); 0/0, highest dose tested
Rattus norvegicus [46] = test: Compound was tested for hallucinogenic activity in rats at the dose 0.37(mg/kg); Number of rats selecting the LSD lever/ number of rats responding (0/8)
Rattus norvegicus [47] = test: Compound was tested for hallucinogenic activity in rats at 1.95 dose(mg/kg); Number of rats selecting the LSD lever/ number of rats responding (1/7)
Rattus norvegicus [48] = test: Compound was tested for hallucinogenic activity in rats at 2.07 dose(mg/kg); 0/0, highest dose tested
Rattus norvegicus [49] = test: Compound was tested for hallucinogenic activity in rats at the dose 0.73(mg/kg); Number of rats selecting the LSD lever/ number of rats responding (0/8)
Rattus norvegicus [50] = test: Compound was tested for hallucinogenic activity in rats at the dose 0.69(mg/kg); Number of rats selecting the LSD lever/ number of rats responding (0/8)
Rattus norvegicus [51] = test: Compound was tested for hallucinogenic activity in rats at 1.84 dose(mg/kg); 2/4, highest dose tested
Rattus norvegicus [52] = test: Compound was tested for hallucinogenic activity in rats at the dose 0.34 (mg/kg); Number of rats selecting the LSD lever/ number of rats responding (0/8)
Rattus norvegicus [53] = test: Compound was tested for hallucinogenic activity in rats at 1.38 dose(mg/kg); Number of rats selecting the LSD lever/ number of rats responding (3/8)
Rattus norvegicus [54] = test: Compound was tested for hallucinogenic activity in rats at the dose 0.34 (mg/kg); Number of rats selecting the LSD lever/ number of rats responding (2/8)
Rattus norvegicus [55] = test: Compound was tested for hallucinogenic activity in rats at 1.84 dose(mg/kg); Number of rats selecting the LSD lever/ number of rats responding (3/8)
Rattus norvegicus [56] = test: Compound was tested for hallucinogenic activity in rats at 1.38 dose(mg/kg); Number of rats selecting the LSD lever/ number of rats responding (2/8)
Rattus norvegicus [57] = test: Compound was tested for hallucinogenic activity in rats at 2.19 dose(mg/kg); 0/1, highest dose tested
Rattus norvegicus [58] = test: Compound was tested for hallucinogenic activity in rats at 1.29 dose(mg/kg); Number of rats selecting the LSD lever/ number of rats responding (5/8)
Rattus norvegicus [59] = test: Compound was tested for hallucinogenic activity in rats at the dose 0 (mg/kg)
Rattus norvegicus [60] = test: Compound was tested for hallucinogenic activity in rats at 1.72 dose(mg/kg); Number of rats selecting the LSD lever/ number of rats responding (7/8)
Rattus norvegicus [61] = test: Compound was tested for hallucinogenic activity in rats at 0.32(mg/kg)
Rattus norvegicus [62] = test: Compound was tested for hallucinogenic activity in rats at 0.32dose (mg/kg); Number of rats selecting the LSD lever/ number of rats responding (0/8)
Rattus norvegicus [63] = test: Compound was tested for hallucinogenic activity in rats at the dose 0.0025 (mg/kg)
Rattus norvegicus [64] = test: Compound was tested for hallucinogenic activity in rats at the dose of 0.01(mg/kg); Number of rats selecting the LSDlever/ number of rats responding (4/8)
Rattus norvegicus [65] = test: Compound was tested for hallucinogenic activity in rats at the dose of 0.08(mg/kg); Number of rats selecting the LSDlever/ number of rats responding (8/8)
Rattus norvegicus [66] = test: Compound was tested for hallucinogenic activity in rats at the dose of 0.005(mg/kg); Number of rats selecting the LSDlever/ number of rats responding (4/8)
Rattus norvegicus [67] = test: Compound was tested for hallucinogenic activity in rats at the dose of 0.02(mg/kg); Number of rats selecting the LSDlever/ number of rats responding (5/8)
Rattus norvegicus [68] = test: Compound was tested for hallucinogenic activity in rats at the dose of 0.04(mg/kg); Number of rats selecting the LSDlever/ number of rats responding (6/8)
Rattus norvegicus [69] = test: Compound was tested for hallucinogenic activity in rats at the dose of 0.0025 (mg/kg); Number of rats selecting the LSDlever/ number of rats responding (0/8)

CC[C@H](Cc1ccc2c(c1)OCO2)NC
Result (Rattus norvegicus [1]): 1
Result (Rattus norvegicus [2]): 2
Result (Rattus norvegicus [3]): 1
Result (Rattus norvegicus [4]): 1
Result (Rattus norvegicus [5]): 1
Result (Rattus norvegicus [6]): 3
Result (Rattus norvegicus [7]): 0
Result (Rattus norvegicus [8]): 2
Result (Rattus norvegicus [9]): 3

C[C@H](N)Cc1ccc2c(c1)OCO2
Result (Rattus norvegicus [10]): 0
Result (Rattus norvegicus [11]): 2
Result (Rattus norvegicus [12]): 3
Result (Rattus norvegicus [13]): 1
Result (Rattus norvegicus [14]): 2
Result (Rattus norvegicus [15]): 2

CC[C@H](N)Cc1ccc2c(c1)OCO2
Result (Rattus norvegicus [16]): 3
Result (Rattus norvegicus [17]): 1
Result (Rattus norvegicus [18]): 3
Result (Rattus norvegicus [19]): 8
Result (Rattus norvegicus [20]): 2
Result (Rattus norvegicus [21]): 1
ED50 (Rattus norvegicus [22]): 1.38 mg/kg
Result (Rattus norvegicus [23]): 1
ED50 (Rattus norvegicus [24]): 6 µmol/kg

C[C@@H](N)Cc1ccc2c(c1)OCO2
ED50 (Rattus norvegicus [25]): 2.94 µmol/kg
Result (Rattus norvegicus [26]): 2
Result (Rattus norvegicus [27]): 1
Result (Rattus norvegicus [28]): 7
Result (Rattus norvegicus [29]): 2

CN[C@@H](C)Cc1ccc2c(c1)OCO2
Result (Rattus norvegicus [30]): 4
Result (Rattus norvegicus [31]): 2
Result (Rattus norvegicus [32]): 4
Result (Rattus norvegicus [33]): 0
Result (Rattus norvegicus [34]): 2
Result (Rattus norvegicus [35]): 4

CN[C@H](C)Cc1ccc2c(c1)OCO2
Result (Rattus norvegicus [36]): 2
Result (Rattus norvegicus [37]): 3
Result (Rattus norvegicus [38]): 3
Result (Rattus norvegicus [39]): 2
Result (Rattus norvegicus [40]): 3
Result (Rattus norvegicus [41]): 4
Result (Rattus norvegicus [42]): 2
Result (Rattus norvegicus [21]): 1
Result (Rattus norvegicus [43]): 3
Result (Rattus norvegicus [44]): 4

CC[C@@H](Cc1ccc2c(c1)OCO2)NC
Result (Rattus norvegicus [45]): 0

CCC(Cc1ccc2c(c1)OCO2)NC (racemic)
Result (Rattus norvegicus [46]): 0
Result (Rattus norvegicus [47]): 1
Result (Rattus norvegicus [48]): 0
Result (Rattus norvegicus [49]): 0

CCC(N)Cc1ccc2c(c1)OCO2 (racemic)
Result (Rattus norvegicus [50]): 0
Result (Rattus norvegicus [51]): 2
Result (Rattus norvegicus [52]): 0
Result (Rattus norvegicus [53]): 3

CNC(C)Cc1ccc2c(c1)OCO2 (racemic) [MIDOMAFETAMINE]
Result (Rattus norvegicus [50]): 0
Result (Rattus norvegicus [54]): 2
Result (Rattus norvegicus [55]): 3
Result (Rattus norvegicus [56]): 2
Result (Rattus norvegicus [57]): 0

CC(N)Cc1ccc2c(c1)OCO2 (racemic) [TENAMFETAMINE]
Result (Rattus norvegicus [58]): 5
ED50 (Rattus norvegicus [59]): 4.52 µmol/kg
Result (Rattus norvegicus [60]): 7
ED50 (Rattus norvegicus [61]): 0.97 mg/kg
Result (Rattus norvegicus [14]): 2
Result (Rattus norvegicus [62]): 0

CCN(CC)C(=O)[C@@H]1C=C2c3cccc4[nH]cc(c34)C[C@H]2N(C)C1 [LYSERGIDE]
ED50 (Rattus norvegicus [63]): 0.025 µmol/kg
Result (Rattus norvegicus [64]): 4
Result (Rattus norvegicus [65]): 8
Result (Rattus norvegicus [66]): 4
Result (Rattus norvegicus [67]): 5
Result (Rattus norvegicus [68]): 6
Result (Rattus norvegicus [69]): 0
